Measured values taken from PubChem BioAssay (NCI).
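Following 48 hours of exposure in 96-well plates, responses at five concentrations were used to interpolate endpoints linearly. TGI: concentration producing complete growth inhibition.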

Key:
Assay in all cases: inhibition of tumour cell growth, NCI panel, 48 h
[1] = system: PC-3 prostate
[2] = system: SF-539 CNS
[3] = system: COLO 205 colon
[4] = system: HCT-116 colon
[5] = system: NCI-H522 lung
[6] = system: DU-145 prostate
[7] = system: KM12 colon
[8] = system: SR leukemia
[9] = system: MCF7 breast
[10] = system: CCRF-CEM leukemia
[11] = system: SK-OV-3 ovarian
[12] = system: K-562 leukemia
[13] = system: UACC-257 melanoma
[14] = system: SNB-19 CNS
[15] = system: SK-MEL-28 melanoma
[16] = system: TK-10 renal
[17] = system: OVCAR-8 ovarian
[18] = system: A549 NSCLC
[19] = system: OVCAR-4 ovarian
[20] = system: NCI-H23 lung
[21] = system: HOP-92 NSCLC
[22] = system: ACHN renal
[23] = system: BT-549 breast
[24] = system: UACC-62 melanoma
[25] = system: HCT-15 colon
[26] = system: SK-MEL-2 melanoma
[27] = system: NCI-H460 lung
[28] = system: SF-268 CNS
[29] = system: CAKI-1 renal
[30] = system: HOP-62 NSCLC
[31] = system: SW-620 colon
[32] = system: MDA-N
[33] = system: RPMI-8226 leukemia
[34] = system: SF-295 CNS
[35] = system: U251 CNS
[36] = system: NCI/ADR-RES ovarian
[37] = system: HL-60(TB) leukemia
[38] = system: M14 melanoma
[39] = system: MOLT-4 leukemia
[40] = system: EKVX NSCLC
[41] = system: MALME-3M melanoma
[42] = system: NCI-H226 lung
[43] = system: UO-31 renal
[44] = system: HT29 colon
[45] = system: IGROV1 ovarian
[46] = system: OVCAR-3 ovarian
[47] = system: HCC-2998 colon
[48] = system: SNB-75 CNS
[49] = system: SN12C renal
[50] = system: RXF 393 renal
[51] = system: OVCAR-5 ovarian
[52] = system: SK-MEL-5 melanoma
[53] = system: 786-0 renal
[54] = system: MDA-MB-231 breast
[55] = system: MDA-MB-435
[56] = system: HS 578T breast
[57] = system: T-47D breast

Measured: TGI

COc1ccc(C(O)c2nccn2C)c(OC)c1 (stereo not drawn)
not listed: [54] | [55] | [56] | [57]
> 100 µM: all other assays above

CCc1nc2ccc(N=NN(C)C)cc2[nH]1
not listed: [2] | [8] | [9] | [11] | [21] | [34] | [37]
> 100 µM: all other assays above
